Measured values: patent US20250333410A1, “COMPOUND FOR INHIBITING OR DEGRADING BCL6 AND USE THEREOF IN PHARMACEUTICS” (XIZANG HAISCO PHARMACEUTICAL CO., LTD., priority 2022, published 2025)

Biological target: Bcl6 (Homo sapiens (Human), UniProt P41182)
Assay: Bcl-6 protein degradation experiment in Farage cells
Assay type: cell-based
Settings: 24 hours
Experimental: 2. Bcl-6 Protein Degradation Experiment in Farage Cells
Farage cells purchased from ATCC were placed in an RPMI-1640 complete medium (containing 10% fetal bovine serum, 100 U/mL penicillin and 100 μg/mL streptomycin) and cultured at 37° C. and 5% CO2. The cells in the logarithmic growth phase were collected, and the cell suspension was adjusted to an appropriate density with the culture medium and added to a 6-well cell culture plate at a volume of 1 mL/well. The compounds to be tested were prepared to 2-fold the final concentration, 1 mL of the compounds at different concentrations were added to administration wells, a medium containing 0.2% DMSO was added to control wells, and the plate was incubated at 37° C. for 24 hours. The cells were collected into a 1.5 mL centrifuge tube, 25 μL of RIPA lysis buffer (containing 1× protease inhibitor cocktail) was added, and the cells were lysed on ice for 15 minutes and centrifuged at 12000 rpm/min at 4° C. for 10 minutes. The supernatant was collected and the protein content was determined using the BCA method. The protein sample to be tested was diluted to 0.8 mg/mL, Bcl6 was detected using a fully automated protein expression quantitative analyzer (ProteinSimple), and the internal reference protein was R-actin (both antibodies were from CST). The software (Compass for SW) of the fully automated protein expression quantitative analyzer was used to process the raw data and calculate the peak area and the Bcl6 expression rate relative to the control group. DC50 values were calculated using a four-parameter non-linear fitting model in Graphpad 8.3.0 software.

SMILES	DC50
CNC(=O)COc1cc2cc(Nc3nc(N4CCC(CN5CCN(c6cccc7c6n(C)c(=O)n7C6CCC(=O)NC6=O)CC5)CC4)ncc3Cl)ccc2n(C)c1=O (stereo not drawn) [Compound 9]	< 10 nM
CC(=O)COc1cc2cc(Nc3nc(N4CCC(CN5CCN(c6cccc7c6n(C)c(=O)n7C6CCC(=O)NC6=O)CC5)CC4)ncc3Cl)ccc2n(C)c1=O (stereo not drawn) [Compound 10]	< 10 nM
CNC(=O)COc1cc2cc(Nc3nc(N4CCN(CC5CCN(Cc6cccc7c6n(C)c(=O)n7C6CCC(=O)NC6=O)CC5)CC4)ncc3Cl)ccc2n(C)c1=O (stereo not drawn) [Compound 12]	< 10 nM
CC(=O)COc1cc2cc(Nc3nc(N4CCN(CC5CCN(c6cc(F)c(C7CCC(=O)NC7=O)c(F)c6)CC5)CC4)ncc3Cl)ccc2n(C)c1=O (stereo not drawn) [Compound 22]	< 10 nM
CNC(=O)COc1cc2cc(Nc3nc(N4CCN(CC5CCN(c6ccc(C7CCC(=O)NC7=O)cn6)CC5)CC4)ncc3Cl)ccc2n(C)c1=O (stereo not drawn) [Compound 39]	< 10 nM
[2H]C([2H])([2H])NC(=O)COc1cc2cc(Nc3nc(N4CCN(CC5CCN(c6ccc(C7CCC(=O)NC7=O)cc6)CC5)CC4)ncc3Cl)ccc2n(C)c1=O (stereo not drawn) [Compound 47]	< 10 nM
C#CCn1c(=O)c(OCC(=O)NC)cc2cc(Nc3nc(N4CCC(CN5CCN6c7ccc(C8CCC(=O)NC8=O)cc7CCC6C5)CC4)ncc3Cl)ccc21 (stereo not drawn) [Compound 50]	< 10 nM
CNC(=O)COc1cc2cc(Nc3nc(N4CCC(CN5CCN6c7ccc(C8CCC(=O)NC8=O)cc7CCC6C5)CC4)ncc3Cl)ccc2n(C2CC2)c1=O (stereo not drawn) [Compound 51]	< 10 nM
CNC(=O)COc1cc2cc(Nc3nc(N4CCC(O[C@H]5C[C@H](N6CCN(c7ccc(C8CCC(=O)NC8=O)cc7)CC6)C5)CC4)ncc3Cl)ccc2n(C(C)C)c1=O (stereo partly drawn) [Compound 95]	< 10 nM
CNC(=O)COc1cc2cc(Nc3nc(N4CCC(O[C@H]5C[C@H](N6CCN(c7ccc(C8CCC(=O)NC8=O)c(F)c7)CC6)C5)CC4)ncc3Cl)ccc2n(C(C)C)c1=O (stereo partly drawn) [Compound 96]	< 10 nM
CC(=O)COc1cc2cc(Nc3nc(N4CCC(N5CCN(c6ccc(NC7CCC(=O)NC7=O)cc6F)CC5)C(F)(F)C4)ncc3Cl)ccc2n(C)c1=O (stereo not drawn) [Trifluoroacetate of compound 5]	< 10 nM
CNC(=O)COc1cc2cc(Nc3nc(N4CCC(N5CCN(c6ccc(NC7CCC(=O)NC7=O)cc6F)CC5)C(F)(F)C4)ncc3Cl)ccc2n(C)c1=O (stereo not drawn) [Trifluoroacetate of compound 7]	< 10 nM
CNC(=O)COc1cc2cc(Nc3nc(N4CCC(N(C)C5CCN(c6cccc7c6n(C)c(=O)n7C6CCC(=O)NC6=O)CC5)CC4)ncc3Cl)ccc2n(C)c1=O (stereo not drawn) [Trifluoroacetate of compound 11]	< 10 nM
CC(=O)COc1cc2cc(Nc3nc(N4CCN(c5ccc(C6CCC(=O)NC6=O)cc5)CC4)ncc3Cl)ccc2n(C)c1=O (stereo not drawn) [Trifluoroacetate of compound 17]	< 10 nM
CNC(=O)COc1cc2cc(Nc3nc(N4CCN(c5ccc(C6CCC(=O)NC6=O)cc5)CC4)ncc3Cl)ccc2n(C)c1=O (stereo not drawn) [Trifluoroacetate of compound 20]	< 10 nM
CNC(=O)COc1cc2cc(Nc3nc(N4CCN(CC5CN(c6ccc(C7CCC(=O)NC7=O)cc6F)C5)CC4)ncc3Cl)ccc2n(C)c1=O (stereo not drawn) [Trifluoroacetate of compound 40]	< 10 nM
CNC(=O)COc1cc2cc(Nc3nc(N4CCN(CC5CCN(c6ccc(C7CCC(=O)NC7=O)cc6F)CC5)CC4)ncc3Cl)ccc2n(C)c1=O (stereo not drawn) [Trifluoroacetate of compound 41]	< 10 nM

SMILES	DC50
CNC(=O)COc1cc2cc(Nc3nc(N4CCN(CC5CCN(c6ccc(C7CCC(=O)NC7=O)cc6)CC5)CC4)ncc3Cl)ccc2n(C(C)C)c1=O (stereo not drawn) [Trifluoroacetate of compound 42]	< 10 nM
C#CCn1c(=O)c(OCC(=O)NC)cc2cc(Nc3nc(N4CCN(CC5CCN(c6ccc(C7CCC(=O)NC7=O)c(F)c6)CC5)CC4)ncc3Cl)ccc21 (stereo not drawn) [Trifluoroacetate of compound 52]	< 10 nM
CNC(=O)COc1cc2cc(Nc3nc(N4CCN(CC5CCN(c6ccc(C7CCC(=O)NC7=O)c(F)c6)CC5)CC4)ncc3Cl)ccc2n(C2CC2)c1=O (stereo not drawn) [Trifluoroacetate of compound 53]	< 10 nM
CNC(=O)COc1cc2cc(Nc3nc(N4CCC(CN5CCN6c7ccc(C8CCC(=O)NC8=O)cc7CCC6C5)CC4)ncc3Cl)ccc2n(C(C)C)c1=O (stereo not drawn) [Trifluoroacetate of compound 54]	< 10 nM
CNC(=O)COc1cc2cc(Nc3nc(N4CCN(CC5CCN(c6cccc(C7CCC(=O)NC7=O)c6)CC5)CC4)ncc3Cl)ccc2n(C)c1=O (stereo not drawn) [Trifluoroacetate of compound 55]	< 10 nM
CCn1c(=O)c(OCC(=O)NC)cc2cc(Nc3nc(N4CCC(O[C@H]5C[C@H](N6CCN7c8cc(F)c(C9CCC(=O)NC9=O)cc8CC[C@H]7C6)C5)CC4)ncc3Cl)ccc21 (stereo partly drawn) [Trifluoroacetate of compound 61]	< 10 nM
CCn1c(=O)c(OCC(=O)NC)cc2cc(Nc3nc(N4CCN(CC5CCN(c6ccc(C7CCC(=O)NC7=O)c(F)c6)CC5)CC4)ncc3Cl)ccc21 (stereo not drawn) [Trifluoroacetate of compound 68]	< 10 nM
CCn1c(=O)c(OCC(=O)NC)cc2cc(Nc3nc(N4CCN(CC5CCN(c6ccc(C7CCC(=O)NC7=O)cc6)CC5)CC4)ncc3Cl)ccc21 (stereo not drawn) [Trifluoroacetate of compound 69]	< 10 nM
CNC(=O)COc1cc2cc(Nc3nc(N4CCC(O[C@H]5C[C@H](N6CCN7c8cc(F)c(C9CCC(=O)NC9=O)cc8CC[C@@H]7C6)C5)CC4)ncc3Cl)ccc2n(C(C)C)c1=O (stereo partly drawn) [Trifluoroacetate of compound 70]	< 10 nM
[2H]C([2H])([2H])NC(=O)COc1cc2cc(Nc3nc(N4CCC(O[C@H]5C[C@H](N6CCN7c8cc(F)c(C9CCC(=O)NC9=O)cc8CC[C@H]7C6)C5)CC4)ncc3Cl)ccc2n(C(C)C)c1=O (stereo partly drawn) [Trifluoroacetate of compound 84]	< 10 nM
[2H]C([2H])([2H])NC(=O)COc1cc2cc(Nc3nc(N4CCC(CN5CCN6c7cc(F)c(C8CCC(=O)NC8=O)cc7CC[C@H]6C5)CC4)ncc3Cl)ccc2n(C(C)C)c1=O (stereo partly drawn) [Trifluoroacetate of compound 85]	< 10 nM
[2H]C([2H])([2H])n1c(=O)c(OCC(=O)NC)cc2cc(Nc3nc(N4CCC(O[C@H]5C[C@H](N6CCN7c8cc(F)c(C9CCC(=O)NC9=O)cc8CC[C@@H]7C6)C5)CC4)ncc3Cl)ccc21 (stereo partly drawn) [Trifluoroacetate of compound 90]	< 10 nM
[2H]C([2H])([2H])NC(=O)COc1cc2cc(Nc3nc(N4CCC(O[C@H]5C[C@H](N6CCN7c8cc(F)c(C9CCC(=O)NC9=O)cc8CC[C@@H]7C6)C5)CC4)ncc3Cl)ccc2n(C([2H])([2H])[2H])c1=O (stereo partly drawn) [Trifluoroacetate of compound 91]	< 10 nM
[2H]C([2H])([2H])NC(=O)COc1cc2cc(Nc3nc(N4CCC(O[C@H]5C[C@H](N6CCN7c8cc(F)c(C9CCC(=O)NC9=O)cc8CC[C@@H]7C6)C5)CC4)ncc3Cl)ccc2n(C)c1=O (stereo partly drawn) [Trifluoroacetate of compound 92]	< 10 nM
[2H]C([2H])([2H])NC(=O)COc1cc2cc(Nc3nc(N4CCC(O[C@H]5C[C@H](N6CCN7c8cc(F)c(C9CCC(=O)NC9=O)cc8CC[C@@H]7C6)C5)CC4)ncc3Cl)ccc2n(C(C)C)c1=O (stereo partly drawn) [Trifluoroacetate of compound 93]	< 10 nM
CNC(=O)COc1cc2cc(Nc3nc(N4CCC(F)(CN5CCN6c7cc(F)c(C8CCC(=O)NC8=O)cc7CC[C@H]6C5)CC4)ncc3Cl)ccc2n(C(C)C)c1=O (stereo partly drawn) [Trifluoroacetate of compound 94]	< 10 nM
